In patent EP4458804A1, “METHOD FOR PRODUCING AN OBJECT, PHENALEN-1-ONE COMPOUND AND USE THEREOF” (TriOptoTec GmbH, priority 2023, dated 2024):

What was measured:
Format in all cases: physicochemical
[1] = Washability test C following DIN EN ISO 11998, 200 sponge cycles with disinfectant solution (Beispiel 10 C); conditions: TPU, Rezeptur 1 nach Beispiel 2
Experimental: Der Test wurde in Anlehnung an die DIN EN ISO 11998:2006-10 ("Beschichtungsstoffe - Bestimmung der Nassabriebbeständigkeit und der Reinigungsfähigkeit von Beschichtungen (ISO 11998:2006)"; Ausgabedatum: 2006-10) durchgeführt, um das Auswaschen der verschiedenen Farbstoffe in den Kunststofffolien nach mechanischer Belastung zu beurteilen.
Hierzu wurden 200 Zyklen mit einem Anpressdruck von 135g angewendet. Es wurde ein Schwamm mit 4,0 mL Probelösung vorbereitet, die zu testende Folie eingespannt und der Schwamm aufgebracht. 200 Zyklen entsprachen dabei circa 5 min Kontaktzeit des Schwamms und der Oberfläche. Nach dem Test wurde die Folie entnommen und im UV-VIS Spektrometer vermessen, um die ausgewaschene Menge an Farbstoff zu bestimmen.
Der jeweils gemessene Wert vor dem Test und nach Abschluss der 200 Zyklen wurde verglichen und daraus ein prozentualer Verlust ermittelt.
Vorbereitet wurde die Folie nach Beispiel 2. Die zu verwendete Probelösung entsprach 5 Gew.-% Incidin Plus Lösung, bezogen auf das Gesamtgewicht der Probelösung.
Incidin Pro, der Firma ECOLAB Deutschland GmbH (Monheim), ist ein flüssiges Konzentrat, das sich zur Reinigung und Desinfektion medizinischer Geräte und Flächen in Einrichtungen des Gesundheitswesens angewendet wird.
Der Test ermittelt somit den nach wiederholtem flächigem Abwischen mit einem Desinfektionsmittel aus einer behandelten Oberfläche ausgetragenen Photokatalysator.

[2] = Leaching stress test B following DIN EN 16105, nine immersion cycles (Beispiel 10 B); conditions: Immersion test B (DIN EN 16105), medium Wasser, plastic TPU, Rezeptur 1 nach Beispiel 1
Experimental: Der Test wurde in Anlehnung an die DIN EN 16105:2011-12 ("[…] zur Bestimmung der Freisetzung von Substanzen aus Beschichtungen in intermittierendem […] unter A) beschrieben erzeugt. Es wurde vollentsalztes Wasser mit einem pH-Wert von (6 ± 1) und einer Wassertemperatur von (22 ± 3) °C verwendet. Beim Test wurden jeweils neun Tauchzyklen durchgeführt. […] Die erforderliche Wassermenge (z. B. 250 mL pro 100 cm2) musste hinzugefügt werden. Für jedes Eintauchen wurde frisches deionisiertes Wasser verwendet. Jeder Probekörper wurde in […]. Die […] so […] von Wasser mit der untersuchten Oberfläche möglich war. Der Tauchbehälter wurde dabei abgedeckt, um ein Verdunsten von Wasser während des Eintauchens zu […]. Der Überschuss wird direkt im UV-VIS-Spektrometer vermessen, vor dem ersten Immersionszyklus und nach Zyklen 1, 3, 5, 7 und 9. Die Ausgangswerte (Absorptionsmaximum des jeweiligen […] dabei zwischen 0,05 A.U. und 1,00 A.U. liegen. Die […] Immersionstest B

[3] = Leaching test A: screening immersion 24 h, UV-VIS of supernatant (Beispiel 10 A); set-up: Abs. nach Auswaschen: unit not given here; conditions: for Berechneter Verlust in %: Rezeptur 1 nach Beispiel 1; for Abs. nach Auswaschen: Rezeptur 1 nach Beispiel 1, supernatant
Experimental: Um das Auswaschen der verschiedenen Farbstoffe in den Kunststofffolien zu beurteilen, wurde ein Immersionstest in deionisiertem Wasser mit einem pH-Wert von (6 ± 1) (oder gegebenenfalls anderen Lösungsmitteln) und einer Wassertemperatur von (22 ± 3) °C für 24 Stunden durchgeführt.
Dazu wurde ein Folienstück definierter Größe (3 cm x 3 cm) imprägniert (nach Rezeptur 1, Beispiel 1) und anschließend für 24 Stunden in eine definierte Menge deionisiertem Wasser (12,0 mL) gegeben und durch eine Schüttelplatte in Bewegung gehalten. Nach der angegeben Immersionszeit wurde die Folie entnommen und der Überschuss im UV-VIS Spektrometer vermessen, um die ausgewaschene Menge an Farbstoff zu bestimmen. Die Menge wird durch die definierte Größe der Folie und definierte Flüssigkeitsmenge auf einen Quadratzentimeter zurückgerechnet.
Dieser Immersionstest diente dazu, das Auswaschverhalten verschiedener Farbstoffe aus verschiedenen Kunststofffolien zu beurteilen. Weiter sollte er dabei helfen, verschiedene Farbstoffklassen oder verschiedene Farbstoffderivate einer Farbstoffklasse bezüglich dieser Charakteristik miteinander zu vergleichen.
Die zugeschnittenen Folien werden in einem geeigneten Behälter vollständig mit dem Prüfmedium (typischerweise deionisiertes Wasser) bedeckt. Anschließend wird der Behälter zugedeckt und auf die Schüttelplatte aufgebracht. Bei geringer Geschwindigkeit der Platte wird für 24 Stunden gewartet. Nach der Immersion wurden 3 mL des Überstandes durch Absorptionsspektroskopie vermessen.
Die Auswertung erfolgte über das Verhältnis der max. Absorptionswerte einer reinen Farbstofflösung definierter Konzentration und des vermessenen Überstandes. Die Ergebnisse sind in Tabelle 50 dargestellt. Tabelle 50: Auswaschverhalten verschiedener Photokatalysatoren nach Immersionstest A

[4] = Incorporation of photocatalysts into TPU films versus process time, absorption spectroscopy against blank film (Beispiele 7a-9b); conditions: TPU Folie, Rezeptur 1; Beispiel 7b, Tabelle 41
Experimental: Im nächsten Schritt wurde die Verwendbarkeit der verschiedene Photokatalysatorklassen, ausgewählt aus Phenalen-1-on-Derivaten, Curcumin-Derivaten und Porphycen-Derivaten, mit unterschiedlichen Eigenschaften - von neutral unpolar bis ionisch polar - auf Ihre Verwendbarkeit und Wirkung im Verfahren untersucht.
Zur Beurteilung der optimalen Prozesszeit bei Einsatz der Photokatalysatoren, wurden TPU Folienstücke nach Beschreibung in Beispiel 4 zu je 1, 2, 5 und 10 min in den Imprägnierlösungen behandelt, gegebenenfalls auch 30 und 60 min bei undeutlichen Ergebnissen.
Als Basisformulierung wurde Rezeptur 1 nach Beispiel 2 verwendet.
Nach der angegebenen Prozesszeit wurden die Folie entnommen, mit Wasser gewaschen und für 1h bei 40°C getrocknet/abgelüftet.
Die Folien wurden durch Absorptionsspektroskopie gegen ein Blank-Folienstück direkt vermessen, beim Maximum der Absorption des Photokatalysators. Dabei ergaben sich in Abhängigkeit der Prozesszeit folgende Werte, die in den Tabellen 40 bis

[5] = medium 5% Neutralseife, plastic PVC
[6] = medium 5% Neutralseife, plastic TPU

With `CC(C)(O)c1cc[n+](CC2=Cc3cccc4cccc(c34)C2=O)cc1` [F-24b] as the compound, how does the “Abs. vor Auswaschen” value ([1]; Washability test C (DIN EN ISO 11998), film before test) read?
The value was 0,121.

And the “Berechneter Verlust in %” value ([1]; Washability test C, 200 sponge cycles, 5 Gew.-% Incidin Plus Lösung)?
The value was 1,7%.

What about the “Abs. nach Auswaschen” value ([1]; Washability test C, film after 200 sponge cycles, 135g, 5 Gew.-% Incidin Plus Lösung) of the same compound?
The value was 0,119.

And the “Abs. nach Auswaschen” value [2]?
The value was 0,006.

What about the “Berechneter Verlust in %” value [2] of the same compound?
The value was 4,9%.

What about the “Berechneter Verlust in %” value [3, 5] of the same compound?
Its value is 3,8%.

And the “Abs. nach Auswaschen” value [3, 5]?
The value was 0,024.

And the “Berechneter Verlust in %” value [3, 6]?
Its value is 10,7%.

What about the “Abs. nach Auswaschen” value [3, 6] of the same compound?
Its value is 0,061.

What about the “Berechneter Verlust in %” value ([3]; medium 70% IPA, plastic PVC) of the same compound?
The value was 25,4%.

And the “Abs. nach Auswaschen” value ([3]; medium 70% IPA, plastic PVC)?
Its value is 0,160.

And the “Berechneter Verlust in %” value ([3]; medium 70% IPA, plastic TPU)?
Its value is 34,0%.

What about the “Abs. nach Auswaschen” value ([3]; medium 70% IPA, plastic TPU) of the same compound?
The value was 0,194.

And the “Berechneter Verlust in %” value ([3]; medium Wasser, plastic EVA)?
Its value is 2,6%.

What about the “Abs. nach Auswaschen” value ([3]; medium Wasser, plastic EVA) of the same compound?
The value was 0,015.

And the “Berechneter Verlust in %” value ([3]; medium Wasser, plastic SEPS)?
The value was 4,7%.

And the “Abs. nach Auswaschen” value ([3]; medium Wasser, plastic SEPS)?
Its value is 0,027.

And the “Berechneter Verlust in %” value ([3]; medium Wasser, plastic TPU)?
The value was 1,4%.

What about the “Abs. nach Auswaschen” value ([3]; medium Wasser, plastic TPU) of the same compound?
Its value is 0,008.

And the “Abs. 1 min” value [4]?
Its value is 0,185.

What about the “Abs. 2 min” value [4] of the same compound?
The value was 0,198.

What about the “Abs. 5 min” value [4] of the same compound?
Its value is 0,257.

And the “Abs. 10 min” value [4]?
Its value is 0,456.
